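Briefly, cells in 96-well plates were exposed to five compound concentrations for 48 h, and endpoints were estimated by linear interpolation. GI50 = concentration required for 50% inhibition of growth. TGI denotes the concentration required for complete inhibition of growth.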

The assay deals with MDA-MB-468 breast. In words: NCI anticancer screen, dose series, 48 h.
With `Nc1c(C(=O)Nc2ccncc2)sc2nc3c(cc12)CCCCCCCC3`, the GI50 is 0.966 µM and the TGI turned out to be 1.76 µM.

`Cn1cc(-c2csc(-c3c[nH]c4ccc(F)cc34)n2)c2cnccc21`: the GI50 was 1.45 µM and the TGI was found to be 3.19 µM.

Regarding `CC(C)Oc1ccc2cc(-c3nn(CC4CCNCC4)c4ncnc(N)c34)ccc2c1`, the GI50 was 6.9 µM and the TGI was determined as 21 µM.

`CNCC#Cc1c(F)ccc2c1/C(=C/c1[nH]ccc1OC)C(=O)N2`: the GI50 was 0.279 µM and the TGI was 0.858 µM.

For `CCSc1ncnc2c1ncn2C1OC(CO)C(O)C1O` (centres undefined), the GI50 is 0.583 µM and the TGI came to 17.6 µM.

As for `COc1ccc(-c2nn(-c3ccc(NC(=O)c4ccc(Cl)c(Cl)c4)cc3)cc2-c2ccncc2)cc1Cl`, the GI50 is 3.15 µM and the TGI was > 50 µM.

With `COc1cc(F)ccc1-c1ncnc(Nc2cccc(CS(C)(=N)=O)c2)n1` (centres undefined), the GI50 was 0.895 µM and the TGI came out at 5.56 µM.

Consider `COc1cccc2c1C(=O)c1c(O)c3c(c(O)c1C2=O)C[C@](O)(C(=O)CO)C[C@H]3O[C@@H]1C[C@@H](NC(=O)CCCCCN(C)C2(c3ccc(F)cc3)CC3CCC2C3)[C@H](O)[C@@H](C)O1` (some centres undefined), for which the GI50 is 5.87 µM and the TGI was determined as 13.5 µM.

With `Cc1ncc(C(=O)Nc2ccc(CN3CCN(C)CC3)c(C(F)(F)F)c2)cc1C#Cc1cnc(N)c2ccncc12`, the GI50 was 1.87 µM and the TGI is 4.4 µM.

As to `COc1cc2c(c(OC)c1OC)-c1ccc(SC)c(=O)cc1C(NC=O)CC2` (centres undefined), the GI50 was < 0.01 µM and the TGI was > 100 µM.

In the case of `Cn1cc(C2=C(c3cn(CCCCO)c4ccccc34)C(=O)NC2=O)c2ccccc21`, the GI50 is 12 µM and the TGI was > 25 µM.

For `[Cl][Hg][c]1cc[c]([Hg][Cl])o1`, the GI50 is 1.58 µM and the TGI worked out at 3.32 µM.

`O=C1OCC2=C1C(c1cccc(Br)c1)c1cc3c(cc1N2CCO)CCC3` (centres undefined): the GI50 is 0.0436 µM and the TGI came out at 1.14 µM.

With `Cc1cc2nc3c4cc(Cl)ccc4n(CC(=S)NCCN(C)C)c3nc2cc1C`, the GI50 was 1.95 µM and the TGI turned out to be 3.96 µM.

With `O=C(c1ccccc1)c1cc2ccccc2o1`, the GI50 was 48.2 µM and the TGI is > 100 µM.

Take `O=C(CC1(O)C(=O)N(Cc2ccccc2)c2ccc(F)cc21)c1ccc(C(=O)NCC2CCC3(CC2)OOC2(CCCCC2)OO3)cc1` (centres undefined): the GI50 is 1.35 µM and the TGI was determined as 3.39 µM.

For `C[C@@H]1CC[C@@H]2[C@@H]1[C@H](OC(=O)/C=C/c1ccccc1)[C@]1(C3CCCCC3)C[C@@H](OC(=O)CO)[C@@]2(C)O1`, the GI50 was 3.33 µM and the TGI came out at 11.1 µM.

As for `C=CCCCCOc1ccccc1-c1cnc(OCCCCC=C)n1C`, the GI50 is 1.93 µM and the TGI stood at 7.86 µM.

For the compound `O=C(Nc1ccncc1)C(=O)c1cn(S(=O)(=O)c2ccc(F)cc2)c2ccccc12`, the GI50 was 1.67 µM and the TGI was > 100 µM.

For the compound `COc1cc(-c2cc(-c3cc4c([nH]c5ccccc54)c(-c4cc(OC)c(OC)c(OC)c4)n3)cc(-c3ccccc3)n2)cc(OC)c1OC`, the GI50 was 1.73 µM and the TGI came out at 4.61 µM.

Regarding `CCOC(=O)Nc1ccc(-c2nc(-c3cccc(OCCN4CCOCC4)c3)c(-c3ccnc(Br)c3)[nH]2)cc1`, the GI50 was 1.68 µM and the TGI came out at 3.66 µM.

For the compound `CS(=O)(=O)CCNCc1nc(-c2ccc3ncnc(Nc4ccc(OCc5cccc(C(F)(F)F)c5)cc4)c3c2)cs1`, the GI50 is 1.55 µM and the TGI is > 20.9 µM.

For the compound `C=C(C)[C@@H]1CC[C@]2(C)[C@H](CC=C3[C@@H]4CC(C)(C)CC[C@]4(C(N)=O)CC[C@]32C)[C@@]1(C)CCC#N`, the GI50 was 2.41 µM and the TGI amounted to 8.42 µM.

For the compound `CC[C@H]1[C@@H]2C=C[C@@H]3[C@H]4C/C=C\C(=O)NCCC[C@@H]5NC(=O)/C(=C(O)/C=C/[C@@H]4C[C@@H]3[C@H]2C[C@H]1C)C5=O`, the GI50 is 2.02 µM and the TGI stood at 5.16 µM.

For the compound `CC(=O)O[C@@H]1C[C@H]2O[C@@H]3C=C(C)CC[C@]3(C)[C@]1(C)[C@]21CO1`, the GI50 was 4.92 µM and the TGI came to 18.2 µM.

Take `COc1cc(Cn2c(-c3ccccc3)c(Cl)c3c2-c2oncc2CC3)cc(OC)c1`: the GI50 is 2.49 µM and the TGI stood at 7.69 µM.

In the case of `CC(=O)OC12C=CC(=O)N1c1ccccc1C(=O)O2` (centres undefined), the GI50 is > 100 µM and the TGI was > 100 µM.

Take `COc1ccc2[nH]cc(C3(c4c[nH]c5ccc(OC)cc45)C(=O)Nc4ccc(F)cc43)c2c1`: the GI50 is 2.07 µM and the TGI stood at 5.67 µM.

Take `CCCN1C(=O)N(CCC)C2C1NC(=S)N2/N=C/C=C/c1ccccc1OC` (centres undefined): the GI50 was 0.372 µM and the TGI is 17 µM.

`Cc1nn(-c2ccc(Cl)cc2)c2nc3c(nc12)C(=O)c1ccccc1-3`: the GI50 is 58.5 µM and the TGI was > 100 µM.

With `CN1C(=O)N(C)C2C1NN=c1s/c(=C\c3ccc(Cl)cc3Cl)c(=O)n12` (centres undefined), the GI50 is 0.183 µM and the TGI came out at 33.4 µM.

For the compound `COc1c(OC[C@H](O)CN2CCOCC2)ccc2c3n(c(=NC(=O)c4cccnc4C)nc12)CCN3`, the GI50 was 0.143 µM and the TGI stood at 1.95 µM.

As for `COc1ccc(C(=O)/C=C/c2cc(-c3cc(OC)c(OC)c(OC)c3)n[nH]2)cc1OC`, the GI50 is 0.759 µM and the TGI was determined as 2.18 µM.

With `Cc1ccc(NC(=O)CC2CC2)cc1-c1ccc(C(=O)NCC2CC2)cc1`, the GI50 was > 15 µM and the TGI is > 25 µM.

With `C#C[C@]1(O)CCC2C3CCc4cc(O)ccc4C3CC[C@@]21C` (some centres undefined), the GI50 is 1.84 µM and the TGI turned out to be 6.2 µM.

For the compound `O=C(N[C@@H](c1ccc(Cl)c(Cl)c1)C1CNC1)c1ccc2cnccc2c1`, the GI50 is 0.0617 µM and the TGI turned out to be 0.638 µM.

As to `CCOC(=O)C(Cc1ccc(CCCC(=O)NCCC(=O)Nc2ccc3nc(C)sc3c2)cc1)C(=O)OCC`, the GI50 was 17.6 µM and the TGI stood at 58.1 µM.

The record behind these values is PubChem BioAssay (NCI).
